In patent publication US20190255138A1, “A NATURAL COMPOSITION TO INHIBIT BETA-SECRETASE AND ENHANCE BIOAVAILABILITY COMPRISING OF TURMERIC AND SESAME SEED EXTRACT” (priority 2016, published 2019):
Non-standard residues stand in square brackets, D forms with d. No end group written: not given here. Sta = CC(C)C[C@H](N)[C@@H](O)CC(=O)O

Biological target: β-Secretase (human, recombinant) (Homo sapiens, UniProt P56817)
Assay: β-Secretase inhibitory activity assay (fluorescent substrate, HPLC peak area of degradative fragment)
Assay type: biochemical
Conditions: inhibitor 2 μg/ml; for Peak area ± S.D.: mean ± S.D. of triplicates
Experimental: β-Secretase (human, recombinant), A fluorescent substrate [MOCAc-[…](Dnp) Arg-Arg-NH2] and a β-secretase inhibitor[[…]Sta-Val-Ala-Glu-Phe(Sta:(3S,4S)-4-amino-3-hydroxy-6-methylheptanoic acid)] Other reagents used in this study were analytical grade. Sesamin-sesamolin in different ratios prepared as per examples 10.
(§1) Samples in a dimethylsulfoxide solution (2 μl), at an appropriate concentration, were diluted with 78 μl of assay buffer (20 mM acetate buffer, pH=4.5 containing 1% triton X-100) in a 96-well microplate. 10 μl of β-secretase solution in assay buffer (17.4 μg protein/ml) was added to the diluted solution, and incubated at 37° C. for 20 min. After incubation, 10 μl of substrate solution with assay buffer (0.1 mM) was added and incubated at 37° C. for 2 h. Fifty μl of reaction solution was then added to 450 μl of 2.5 M sodium acetate solution to terminate the reaction. The diluted solution was analyzed by HPLC applying the conditions listed below. Column: L-column ODS (Chemicals Evaluation and Research Institute, Tokyo, Japan, 4.6 i.d.×250 mm), mobile phase; 0.1% (v/v) formic acid/acetonitrile (0.1% (v/v) formic acid); 0 min (9:1), 17.5 min (5.5:4.5), 17.6 min (0.5:9.5), 22.5 min (0.5:9.5), column temperature: 40° C., flow rate; 1 ml/min, detection; fluorescent of excitation at 325 nm and emission at 395 nm, injection volume; 20 μl. The peak area of the peak derived from the degradative fluorescent fragment (retention time 15.7 min) was integrated and the peak area was found. The inhibitory activity of the sample was calculated using the following equation.
Inhibition (%)=100−[(Peak area from sample group)/(Peak area from control group)×100]
β-Secretase (human, recombinant). A fluorescent substrate [MOCAc-[…](Dnp) Arg-Arg-NH2] and a β-secretase inhibitor[[…]Sta-Val-Ala-Glu-Phe(Sta:(3S,4S)-4-amino-3-hydroxy-6-methylheptanoic acid)]. Other reagents used in this study were analytical grade. Essential oil of turmeric (EOT) with different percentage of α-turmerone prepared as per examples 2.
as §1, with “temperature;” for “temperature:”
β-Secretase (human, recombinant), A fluorescent substrate [MOCAc-[…](Dnp) Arg-Arg-NH2] and a β-secretase inhibitor[[…]Sta-Val-Ala-Glu-Phe(Sta:(3S,4S)-4-amino-3-hydroxy-6-methylheptanoic acid)]. Other reagents used in this study were analytical grade.
Samples in a dimethylsulfoxide solution (2 μl), at an appropriate concentration, were diluted with […] of assay buffer (20 mM acetate buffer, pH=4.5 containing 1% triton X-100) in a 96-well microplate. 10 μl of β-secretase solution in assay buffer (17.4 μg protein/ml) was added to the diluted solution, and incubated at 37° C. for 20 min.

Chain of β-Secretase (human, recombinant) (P56817 46-501): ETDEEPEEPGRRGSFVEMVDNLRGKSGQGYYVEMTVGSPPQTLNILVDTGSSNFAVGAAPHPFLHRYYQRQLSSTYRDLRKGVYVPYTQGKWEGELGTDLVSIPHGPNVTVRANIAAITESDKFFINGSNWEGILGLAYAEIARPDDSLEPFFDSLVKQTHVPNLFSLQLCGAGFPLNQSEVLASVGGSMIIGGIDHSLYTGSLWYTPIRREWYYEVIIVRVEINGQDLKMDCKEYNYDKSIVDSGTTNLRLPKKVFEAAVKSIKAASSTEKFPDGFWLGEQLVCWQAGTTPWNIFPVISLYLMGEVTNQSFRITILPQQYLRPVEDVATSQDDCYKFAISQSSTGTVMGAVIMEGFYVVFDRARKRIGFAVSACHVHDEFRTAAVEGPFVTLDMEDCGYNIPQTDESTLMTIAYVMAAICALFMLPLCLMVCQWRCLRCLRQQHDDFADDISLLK

Substance: KTEEISEVN[Sta]VAEF [Inhibitor]
- Inhibition (%) (Example 17): 47.33%
- Peak area ± S.D. (Example 17): 2256512 ± 24323
- Inhibition (%) (Example 18): 45.67%
- Peak area ± S.D. (Example 18): 2386115 ± 25498
- Inhibition (%) (Example 19): 48.31%
- Peak area ± S.D. (Example 19): 2418426 ± 23621
- Inhibition (%) (Example 20): 48.8%
- Peak area ± S.D. (Example 20): 2299129 ± 25842
- Inhibition (%) (Example 22): 45.77%
- Peak area ± S.D. (Example 22): 2385632 ± 27453
